Here are results for 33 compounds from patent US6043248A, “Alpha-substituted pyrimidine-thioalkyl and alkylether compounds as inhibitors of viral reverse transcriptase” (priority 1997, dated 2000).

In experiment [1] the target is T1, P236L viral reverse transcriptase (Human immunodeficiency virus type 1 group M subtype B, UniProt P04585, P823L).
T1 construct: P236L viral reverse transcriptase is obtained by PNAS 90: 4713-4717 (1993); made in house
As to the kind of experiment: inhibition of viral reverse transcriptase (P236L), cell free assay. The format is biochemical. As to conditions: IC50 (Table I, P236L), 30 minutes at 37° C. Summed up:
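E. coli-expressed wild-type or P236L RT extracts incubated with inhibitor 30 min at 37 °C in Tris pH 8.3 with MgCl₂, NaCl, DTT, NP-40, 10 μM [35S]-dNTP, poly rC/rG template and oligo dG/dT primer. Incorporated label counted on DE81 paper; reported as % inhibition and/or IC50.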

The target in experiment [2] is T2, viral reverse transcriptase (Wild Type) (Human immunodeficiency virus type 1 group M subtype B, UniProt P04585).
T2 construct: Viral reverse transcriptase (Wild Type) is found in extracts from bacterial clones; made in house; host or cells: Escherichia coli
As to the kind of experiment: inhibition of viral reverse transcriptase (Wild Type), cell free assay. The format is biochemical. As to conditions: for IC50: 30 minutes at 37° C., read-out: IC50 (Table II, Wild Type). From the text:
The utility of the pyrimidine-thioalkyl and alkylether anti-AIDS compounds of Formula IA of this invention can be determined by their ability to inhibit viral reverse transcriptase, an enzyme essential for human immunodeficiency virus replication. This enzyme has characteristics which differentiate it from other known cellular polymerases and it is a unique enzyme which is not found in uninfected cells. Viral reverse transcriptase (Wild Type) is found in extracts from bacterial clones prepared according to the procedure described in AIDS Virus Reverse Transcriptase defined by high level expression in Escherichia coli, EMBO J. 6:3133-3137 (1987). P236L viral reverse transcriptase is obtained by PNAS 90: 4713-4717 (1993). Inhibition of this enzyme is determined in a cell free assay which measures the level of radioactive precursors incorporated into DNA. Extracts prepared according to the procedure of Science, 1125-1129 (1981) are incubated in a mixture of inhibitor, 20 mM dithiothreitol, 60 mM sodium chloride, 0.05% NP-40, 10 mM magnesium chloride, 50 mM Tris pH 8.3, 10 μM [^35 S]-labeled deoxynuleoside-5'-triphosphate, 10 μg/ml RNA template (poly rC or poly rG) and 5 μg/ml DNA primer (oligo dG or oligo dT) for 30 minutes at 37° C. Incorporation of radio-labeled percursor is determined by spotting aliquots of the reaction mixture on DE81 paper, washing the papers to remove unincorporated percursor, drying and determining counts. The results (IC50 means the concentration, in μM of drug, required to inhibit the reverse transcriptase activity (P236L and Wild Type) to the extent of 50%) of various assay(s) are combined and reported as % inhibition and/or IC50 (calculated) in Table I (P236L) and Table II (Wild Type).

Structures can show the parent of a compound that is named as a salt.

For orientation: IC50 means the point on the concentration scale where inhibition reaches its midpoint. What is called inhibition is the percentage by which the read-out fell short of the control. Lower therefore signals little suppression.

As for `CCN(CC)C(=O)/C=C/C(C)Sc1nc(N)cc(Cl)n1` (centres unmarked) [Example 207, (E)-N,N-Diethyl-4-[(4-amino-6-chloro-2-pyrimidinyl)thio]-2-pentenamide], the results for the IC50 in experiment [1] and in experiment [2] were 0.068 µM and 0.049 µM, respectively.
In the same order, the values of `CCc1coc2cnc(C(C)Sc3nc(N)cc(Cl)n3)cc12` (centres unmarked) [Example 249, 4-Amino-6-chloro-2-(1-(3-ethylfuro[2,3c]pyridine-5-yl)ethyl)thio-pyrimidine] are 0.01 µM and 0.023 µM.
`Clc1nc(SCc2ccc3ccccc3c2)nc2c1CCN2` [Example 281, 4-chloro-2-(naphthylmethyl)thio-5,6-dihydro-7H-pyrrolo[2,3-d]pyrimidine] came in with an IC50 in experiment [1] of 1 µM. The compound also came in with an inhibition at 50 µM in experiment [2] of 56%.
As for `COC(=O)/C=C/CSc1nc(N)cc(Cl)n1` [Example 193, (E)-4-[(4-Amino-6-chloro-2-pyrimidinyl)thio]-2-butenoic acid methyl ester], the IC50 came to 0.93 µM in experiment [1] and 5.25 µM in experiment [2].
For `CC(Sc1nc(N)cc(Cl)n1)c1cc(C(C)(C)C)ccn1` (centres unmarked) [Example 210, 4-Amino-6-chloro-2-(1-(4-(1,1-dimethyl)ethyl-2-pyridyl)ethyl)thio-pyrimidine], the IC50 in experiment [1] was 0.099 µM; in experiment [2], 0.08 µM.
The corresponding values for `CCc1ccnc([C@@H](C)Sc2nc(N)cc(Cl)n2)c1` [Example 291, R-(+)-4-Amino-6-chloro-2-(1-(4-ethyl-2-pyridyl)ethyl)thio-pyrimidine] are 0.08 µM and 0.187 µM.
In the same order, the values of `CC(Sc1nc(N)cc(Cl)n1)c1cc2ccoc2cn1` (centres unmarked) [Example 238, 4-Amino-6-chloro-2-(1-(furo[2,3-c]pyridin-5-yl)ethyl)thio-pyrimidine] are 0.011 µM and 0.007 µM.
The corresponding values for `CC(Sc1nc(N)cc(Cl)n1)c1cc2ccoc2c(Cl)n1` (centres unmarked) [Example 237, 4-Amino-6-chloro-2-(1-(7-chlorofuro[2,3c]pyridine-5-yl)ethyl)thio-pyrimidine] are 0.026 µM and 0.015 µM.
Compound `N#Cc1cc(N)nc(SCc2ccc3ccccc3c2)n1` [Example 277, 6-amino-2-(2-naphthylmethyl)thio-4-pyrimidine carbonitrile] registered an IC50 in experiment [1] of 0.5 µM. Moreover, testing at 10 µM in experiment [2] gave an inhibition of 84%.
As to `C=C(C)c1ccnc(C(C)Sc2nc(N)cc(Cl)n2)c1` (centres unmarked) [Example 221, 4-Amino-6-chloro-2-(1-(4-(1-methylethenyl)-2-pyridyl)ethyl)thio-pyrimidine], the IC50 in experiment [1] stood at 0.039 µM; in experiment [2] it was 0.019 µM.
The corresponding values for `CCN(CC)C(=O)/C=C/CSc1nc(N)cc(Cl)n1` [Example 194, (E)-N,N-Diethyl-4-[(4-amino-6-chloro-2-pyrimidinyl)thio]-2-butenamide] are 0.034 µM and 0.049 µM.
For the compound `Cc1coc2cnc([C@@H](C)Sc3nc(N)cc(C(F)(F)F)n3)cc12` [Example 298, (R)-(+)-4-Amino-6-trifluoromethyl-2-(1-(3-methylfuro[2,3c]pyridin-5-yl)ethylthio)-pyrimidine], the values for the IC50 in experiment [1] and in experiment [2] were 0.079 µM and 0.113 µM, respectively.
`Cc1cc2cc(C(C)Sc3nc(N)cc(C(F)(F)F)n3)ncc2o1` (centres unmarked) [Example 243, 4-Amino-6-trifluoromethyl-2-(1-(2-methylfuro[2,3c]pyridine-5-yl)ethyl)thio-pyrimidine]: the IC50 in experiment [1] turned out to be 0.188 µM; in experiment [2], 0.495 µM.
The corresponding values for `CC(Sc1nc(N)cc(Cl)n1)c1cc(N(C)C)ccn1` (centres unmarked) [Example 259] are 0.03 µM and 0.087 µM.
With `Cc1ccnc(C(C)Sc2nc(N)cc(Cl)n2)c1` (centres unmarked) [Example 215, 4-Amino-6-chloro-2-(1-(4-methyl-2-pyridyl)ethyl)thio-pyrimidine hydrochloride], the IC50 in experiment [1] amounted to 0.033 µM; in experiment [2], 0.017 µM.
Regarding `CC(C)c1ccnc(CSc2nc(N)cc(C(F)(F)F)n2)c1` [Example 271, 4-amino-6-trifluoromethyl-2-((4-(1-methylethyl)2-pyridyl)methyl)thio-pyrimidine], the IC50 stood at 0.05 µM in experiment [1] and 0.031 µM in experiment [2].
In the same order, the values of `CCc1cc(C(C)Sc2nc(N)cc(Cl)n2)ncc1OC` (centres unmarked) [Example 245, 4-Amino-6-chloro-2-(1-(4-ethyl-5-methoxy-2-pyridyl)ethyl)thio-pyrimidine] are 0.191 µM and 0.343 µM.
In the same order, the values of `C=Cc1cc(C(C)Sc2nc(N)cc(Cl)n2)nc(Cl)c1OC` (centres unmarked) [Example 244, 4-Amino-6-chloro-2-(1-(6-chloro-5-methoxy-4-vinyl-2-pyridyl)ethyl)thio-pyrimidine] are 0.186 µM and 0.141 µM.
In the same order, the values of `C[C@H](Sc1nc(N)cc(Cl)n1)c1cc2ccoc2cn1` [Example 299, (S)-(-)-4-Amino-6-chloro-2-(1-(furo[2,3c]pyridin-5-yl)ethylthio)-pyrimidine] are 0.022 µM and 0.02 µM.
In turn, `Nc1cc(Cl)nc(SC/C=C/C(=O)N2CCOCC2)n1` [Example 198, (E)-4-[4-[(4-amino-6-chloro-2-pyrimidinyl)thio]-1-oxo-2-butenyl]morpholine] showed an IC50 in experiment [1] of 10 µM. At 50 µM the inhibition in experiment [2] was 69%.
Take `Cc1cc2cc(C(C)Sc3nc(N)cc(Cl)n3)ncc2o1` (centres unmarked) [Example 242, 4-Amino-6-chloro-2-(1-(2-methylfuro[2,3c]pyridine-5-yl)ethyl)thio-pyrimidine]: the IC50 in experiment [1] is 0.118 µM; in experiment [2], 0.282 µM.
The corresponding values for `CC(Sc1nc(N)cc(Cl)n1)c1ccccn1` (centres unmarked) [Example 211, 4-Amino-6-chloro-2-(1-(2-pyridyl)ethyl)thio-pyrimidine] are 0.046 µM and 0.19 µM.
For the compound `Cc1coc2cnc([C@H](C)Sc3nc(N)cc(C(F)(F)F)n3)cc12` [Example 297, (S)-(-)-4-Amino-6-trifluoromethyl-2-(l1-(3-methylfuro[2,3c]pyridin-5-yl)ethylthio)-pyrimidine], the IC50 in experiment [1] turned out to be 0.064 µM; in experiment [2], 0.078 µM.
For the compound `COC(=O)C(Sc1nc(N)cc(Cl)n1)c1cc(C)ccn1` (centres unmarked) [Example 220, 4-Amino-6-chloro-2-(1-(4-methyl-2-pyridyl)-1-carbomethoxy-methyl)thio-pyrimidine], inhibition in experiment [1] was half-maximal at 50 µM (IC50). In experiment [2], the inhibition at 50 µM came out at 19%.
In the case of `CC(C)c1ccnc(C(C)Sc2nc(N)cc(C(F)(F)F)n2)c1` (centres unmarked) [Example 272, 4-amino-6-trifluoromethyl-2-(1-(4-(1-methylethyl)2-pyridyl)ethyl)thio-pyrimidine], the results for the IC50 in experiment [1] and in experiment [2] were 0.16 µM and 0.112 µM, respectively.
In the same order, the values of `CC(Sc1nc(N)cc(Cl)n1)c1cc2c(cn1)CCCC2` (centres unmarked) [Example 233, 4-Amino-6-chloro-2-(1-(3-(5,6,7,8-tetrahydroisoquinolyl))ethyl)thiopyrimidine] are 0.068 µM and 0.067 µM.
`CC(Sc1nc(N)cc(Cl)n1)c1cc(C2CC2)ccn1` (centres unmarked) [Example 255] registered an IC50 in experiment [1] of 0.1 µM. For the same compound, in experiment [2], the inhibition at 1 µM was found to be 96%.
Consider `Cc1cc2cc(C(C)Sc3nc(N)cc(Cl)n3)nc(Cl)c2o1` (centres unmarked) [Example 240, 4-Amino-6-chloro-2-(1-(7-chloro-2-methylfuro[2,3c]pyridin-5-yl)ethyl)thio-pyrimidine], for which the values for the IC50 in experiment [1] and in experiment [2] were 0.116 µM and 0.381 µM, respectively.
Consider `CC(Sc1nc(N)cc(Cl)n1)c1cc(C2CCCCC2)ccn1` (centres unmarked) [Example 257], for which the IC50 in experiment [1] worked out at 0.5 µM. This compound also yielded an inhibition at 10 µM in experiment [2] of 78%.
Regarding `CCCN(CCC)C(=O)/C=C/CSc1nc(N)cc(Cl)n1` [Example 202, (E)-N,N-Dipropyl-4-[(4-amino-6-chloro-2-pyrimidinyl)thio]-2-butenamide], the inhibition at 1 µM in experiment [2] was 62%.
`CC(C)(Sc1nc(N)cc(Cl)n1)c1ccccn1` [Example 212, 4-Amino-6-chloro-2-(1-(2-pyridyl)-1-methylethyl)thio-pyrimidine] gave an inhibition at 10 µM in experiment [2] of 57%.
On to `CC(C)c1coc2cnc(C(C)Sc3nc(N)cc(Cl)n3)cc12` (centres unmarked) [Example 252, 4-Amino-6-chloro-2-(1-(3-(1-methylethyl)furo[2,3c]-pyridin-5-yl)ethyl)thio-pyrimidine], for which the IC50 in experiment [2] was determined as 0.175 µM.
In experiment [2], `C=CCN(C)C(=O)/C=C/CSc1nc(N)cc(Cl)n1` [Example 201, (E)-N-allyl-N-methyl-4-[(4-amino-6-chloro-2-pyrimidinyl)thio]-2-butenamide] had an inhibition at 1 µM of 80%.
